Results taken from patent US7910559B2, “Decladinosyl-macrolides with anti-inflammatory activity” (GlaxoSmithKline istrazivacki centar Zagreb d.o.o., priority 2005, dated 2011).
Read-outs that look alike come from different tables or passages of the source.

Columns and labels:
Assay type in all cases: cell-based
human IL-8 = assay: Inhibition of IL-8 production by stimulated human peripheral blood leukocytes in vitro (ELISA); settings: Homo sapiens, Leukocyte, PBL, read-out: Percentage of inhibition of IL-8 production; for inhibition at 10 µM: compound 10 μM; for inhibition at 50 µM: compound 50 μM
Outline: (§1)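 Human PBL from healthy donors preincubated 2 h at 37 °C with compound, then stimulated overnight with 2 μg/mL LPS, 1 μg/mL PMA or 120 μg/mL zymosan. Supernatant cytokines measured by sandwich ELISA. % inhibition is relative to stimulated, untreated cells.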

human IL-6 = assay: Inhibition of IL-6 production by stimulated human peripheral blood leukocytes in vitro (ELISA); settings: Homo sapiens, Leukocyte, PBL, read-out: Percentage of inhibition of IL-6 production; for inhibition at 10 µM: compound 10 μM; for inhibition at 50 µM: compound 50 μM
Outline: as §1

human TNF-α = assay: Inhibition of TNF-α production by stimulated human peripheral blood leukocytes in vitro (ELISA); settings: Homo sapiens, Leukocyte, PBL, read-out: Percentage of inhibition of TNF-α production; for inhibition at 10 µM: compound 10 μM; for inhibition at 50 µM: compound 50 μM
Outline: as §1

human IL-1β = assay: Inhibition of IL-1β production by stimulated human peripheral blood leukocytes in vitro (ELISA); settings: Homo sapiens, Leukocyte, PBL, read-out: Percentage of inhibition of IL-1β production; for inhibition at 10 µM: compound 10 μM; for inhibition at 50 µM: compound 50 μM
Outline: as §1

[1] = test system: human peripheral blood mononuclear cells (PBMC); assay: Human peripheral blood mononuclear cell proliferation in vitro ((3H)thymidine incorporation); settings: Homo sapiens, PBMC, read-out: Percentage of inhibition of proliferation of stimulated PBMC; for inhibition at 10 µM: compound 10 μM; for inhibition at 50 µM: compound 50 μM
Description: Substances, used in in vitro experiments, were dissolved in dimethyl sulfoxide (DMSO) (Kemika, Croatia) at concentrations of 50 mM and 10 mM and were further diluted to the final concentrations of […] in 1 mL Dulbecco's modified Eagle medium (DMEM) supplemented with 1% heat inactivated fetal bovine serum (FBS), 1% glutamax, 50 U/ml penicillin, 50 μg/ml streptomycin and 2.5 μg/mL Fungizone (amphotericin B). Media and all media supplements were purchased from Gibco, Australia, except FBS that was from Sigma, USA.
Heparinized peripheral blood was obtained from healthy donors, and peripheral blood mononuclear cells (PBMC) were isolated by Histopaque 1077 (Sigma, USA) density centrifugation at 400 g for 30 minutes. Collected PBMC were centrifuged in plasma at 400 g/10 min, resuspended and washed in RPMI 1640 (Institute of Immunology, Croatia) by centrifugation.
Influence of substances at two different concentrations (50 μM and 10 μM) on proliferation of human peripheral blood mononuclear cells (PBMC) was assessed.
Heparinized peripheral blood was obtained from healthy donors, and PBMC were isolated by Histopaque 1077 (Sigma, USA) density centrifugation at 400 g for 30 minutes. 5×10^4 cells/well were cultured for 3 days in the RPMI medium as described above, in the presence (positive control) or absence (negative control) of stimulators [PHA (2.5 μg/mL) (Sigma, USA) or both PMA (10 ng/mL) (Sigma, USA) and ionomycin (500 ng/mL) (Calbiochem, USA)] and tested substances at 37° C. in 5% CO2 and 90% humidity. The cells were pulsed with 1 μCi of (^3H)thymidine (Amersham, USA) per well during the last 18 h of the cultures and were harvested on a 96-well filter (Packard Bioscience, USA) with a multiple cell harvester (Packard, USA). The incorporation of (^3H)thymidine in activated cells was measured by TopCount NXT (Packard, USA).
Inhibition of cell proliferation (as a percentage) was calculated using the following formula: % inhibition=(1−(^3H)thymidine incorporation expressed in counts per minute (cpm) in sample/(3H)thymidine incorporation expressed in cpm in positive control)×100 where “positive control” refers to stimulated samples not treated with substances.

A549 = settings: human, 24 h
Outline: (§2)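 MTT cytotoxicity read-out: cells were exposed to compound at 50 μM and 12.5 μM for 24 hours at 37° C in RPMI, then MTT was added for 0.5-2 hours. Formazan absorbance at 490 nm gave the percentage of viable cells relative to untreated cells.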

Hep G2 = settings: human, 24 h
Outline: as §2

THP-1 = settings: human, 24 h
Outline: as §2

Question: `CC[C@H]1OC(=O)[C@H](C)[C@@H](OC(=O)CCN(CC)CC)[C@H](C)[C@@H](O[C@@H]2O[C@H](C)C[C@H](N(C)C)[C@H]2O)[C@](C)(OC)C[C@@H](C)C(=O)[C@H](C)[C@@H](O)[C@]1(C)O` [Example 5, 3-O-(3-Diethylamino-propionyl)-3-O-decladinosyl-6-O-methyl-erythromycin A] was tested. Which inhibition at 10 µM (human IL-8; LPS stimulation) did it give?
Answer: 22%

Question: And the inhibition at 50 µM (human IL-8; LPS stimulation)?
Answer: 95%

Question: And the inhibition at 10 µM (human IL-8; PMA stimulation)?
Answer: 48%

Question: And the inhibition at 50 µM (human IL-8; PMA stimulation)?
Answer: 83%

Question: And the inhibition at 10 µM (human IL-8; zymosan stimulation)?
Answer: 48%

Question: What about the inhibition at 50 µM (human IL-8; zymosan stimulation) of the same compound?
Answer: 100%

Question: What about the inhibition at 10 µM (human IL-6; LPS stimulation) of the same compound?
Answer: 38%

Question: What about the inhibition at 50 µM (human IL-6; LPS stimulation) of the same compound?
Answer: 100%

Question: What about the inhibition at 10 µM (human IL-6; PMA stimulation) of the same compound?
Answer: 78%

Question: What about the inhibition at 50 µM (human IL-6; PMA stimulation) of the same compound?
Answer: 100%

Question: And the inhibition at 10 µM (human IL-6; zymosan stimulation)?
Answer: 51%

Question: What about the inhibition at 50 µM (human IL-6; zymosan stimulation) of the same compound?
Answer: 100%

Question: What about the inhibition at 10 µM (human TNF-α; LPS stimulation) of the same compound?
Answer: 3%

Question: And the inhibition at 50 µM (human TNF-α; LPS stimulation)?
Answer: 92%

Question: And the inhibition at 10 µM (human TNF-α; PMA stimulation)?
Answer: 29%

Question: What about the inhibition at 50 µM (human TNF-α; PMA stimulation) of the same compound?
Answer: 100%

Question: And the inhibition at 10 µM (human TNF-α; zymosan stimulation)?
Answer: 17%

Question: What about the inhibition at 50 µM (human TNF-α; zymosan stimulation) of the same compound?
Answer: 100%

Question: And the inhibition at 10 µM (human IL-1β; LPS stimulation)?
Answer: 75%

Question: What about the inhibition at 50 µM (human IL-1β; LPS stimulation) of the same compound?
Answer: 80%

Question: And the inhibition at 10 µM (human IL-1β; PMA stimulation)?
Answer: 91%

Question: And the inhibition at 50 µM (human IL-1β; PMA stimulation)?
Answer: 100%

Question: What about the inhibition at 10 µM (human IL-1β; zymosan stimulation) of the same compound?
Answer: 68%

Question: What about the inhibition at 50 µM (human IL-1β; zymosan stimulation) of the same compound?
Answer: 100%

Question: And the inhibition at 10 µM ([1]; PHA stimulation)?
Answer: 99%

Question: And the inhibition at 50 µM ([1]; PHA stimulation)?
Answer: 100%

Question: And the inhibition at 10 µM ([1]; PMA + ionomycin stimulation)?
Answer: 90%

Question: What about the inhibition at 50 µM ([1]; PMA + ionomycin stimulation) of the same compound?
Answer: 100%

Question: And the “Percentage of viable cells after treatment” value (“Percentage of viable cells” below) (A549; 12.5 μM)?
Answer: 100%

Question: What about the “Percentage of viable cells” value (A549; 50 μM) of the same compound?
Answer: 100%

Question: And the “Percentage of viable cells” value (Hep G2; 12.5 μM)?
Answer: >86%

Question: What about the “Percentage of viable cells” value (Hep G2; 50 μM) of the same compound?
Answer: 100%

Question: What about the “Percentage of viable cells” value (THP-1; 12.5 μM) of the same compound?
Answer: 100%

Question: What about the “Percentage of viable cells” value (THP-1; 50 μM) of the same compound?
Answer: >80%

Question: Which inhibition at 10 µM (human IL-8; LPS stimulation) does the source give for `CC[C@H]1OC(=O)[C@H](C)[C@@H](O[C@H]2C[C@@](C)(OC)[C@@H](O)[C@H](C)O2)[C@H](C)[C@@H](O[C@@H]2O[C@H](C)C[C@H](N(C)C)[C@H]2O)[C@](C)(O)C[C@@H](C)CN(C)[C@H](C)[C@@H](O)[C@]1(C)O` [azithromycin, reference compound] here?
Answer: 0%

Question: And the inhibition at 50 µM (human IL-8; LPS stimulation)?
Answer: 0%

Question: And the inhibition at 10 µM (human IL-8; PMA stimulation)?
Answer: 0%

Question: What about the inhibition at 50 µM (human IL-8; PMA stimulation) of the same compound?
Answer: 0%

Question: And the inhibition at 10 µM (human IL-8; zymosan stimulation)?
Answer: 0%

Question: What about the inhibition at 50 µM (human IL-8; zymosan stimulation) of the same compound?
Answer: 0%

Question: What about the inhibition at 10 µM (human IL-6; LPS stimulation) of the same compound?
Answer: 15%

Question: What about the inhibition at 50 µM (human IL-6; LPS stimulation) of the same compound?
Answer: 40%

Question: And the inhibition at 10 µM (human IL-6; PMA stimulation)?
Answer: 0%

Question: What about the inhibition at 50 µM (human IL-6; PMA stimulation) of the same compound?
Answer: 0%

Question: What about the inhibition at 10 µM (human IL-6; zymosan stimulation) of the same compound?
Answer: 20%

Question: What about the inhibition at 50 µM (human IL-6; zymosan stimulation) of the same compound?
Answer: 75%

Question: And the inhibition at 10 µM (human TNF-α; LPS stimulation)?
Answer: 36%

Question: What about the inhibition at 50 µM (human TNF-α; LPS stimulation) of the same compound?
Answer: 20%

Question: What about the inhibition at 10 µM (human TNF-α; PMA stimulation) of the same compound?
Answer: 0%

Question: What about the inhibition at 50 µM (human TNF-α; PMA stimulation) of the same compound?
Answer: 0%

Question: And the inhibition at 10 µM (human TNF-α; zymosan stimulation)?
Answer: 6%

Question: What about the inhibition at 50 µM (human TNF-α; zymosan stimulation) of the same compound?
Answer: 64%

Question: What about the inhibition at 10 µM (human IL-1β; LPS stimulation) of the same compound?
Answer: 28%

Question: And the inhibition at 50 µM (human IL-1β; LPS stimulation)?
Answer: 48%

Question: And the inhibition at 10 µM (human IL-1β; PMA stimulation)?
Answer: 0%

Question: What about the inhibition at 50 µM (human IL-1β; PMA stimulation) of the same compound?
Answer: 0%

Question: And the inhibition at 10 µM (human IL-1β; zymosan stimulation)?
Answer: 20%

Question: What about the inhibition at 50 µM (human IL-1β; zymosan stimulation) of the same compound?
Answer: 75%

Question: What about the inhibition at 10 µM ([1]; PHA stimulation) of the same compound?
Answer: 5%

Question: What about the inhibition at 50 µM ([1]; PHA stimulation) of the same compound?
Answer: 29%

Question: And the inhibition at 10 µM ([1]; PMA + ionomycin stimulation)?
Answer: 9%

Question: What about the inhibition at 50 µM ([1]; PMA + ionomycin stimulation) of the same compound?
Answer: 31%

Question: And the “Percentage of viable cells” value (A549; 12.5 μM)?
Answer: 100%

Question: And the “Percentage of viable cells” value (A549; 50 μM)?
Answer: 100%

Question: And the “Percentage of viable cells” value (Hep G2; 12.5 μM)?
Answer: 100%

Question: What about the “Percentage of viable cells” value (Hep G2; 50 μM) of the same compound?
Answer: >95%

Question: What about the “Percentage of viable cells” value (THP-1; 12.5 μM) of the same compound?
Answer: 100%

Question: And the “Percentage of viable cells” value (THP-1; 50 μM)?
Answer: >95%
